In assay [1] the test system is trachea contractions caused by potassium chloride. As to the kind of experiment: Antagonism of the effect of potassium chloride (contraction of isolated guinea pig trachea). Conditions: Cavia porcellus, 5 min; potassium chloride 1850 μg/ml; 5 minutes contact; 37° C. The protocol:
(§1) The compounds of the invention were subjected to pharmacological tests which have shown their interest as broncholytics. For this purpose, the compounds were studied for their effect against contractions caused by various products in accordance with the following protocol.
(§2) A piece of the trachea of a male tri-color guinea pig of an average weight of 400 g is cut in a spiral and mounted (about 2.5 cm) in an isolated organ cell maintained thermostatically at 37° C. and filled with oxygenated tyrode. The isometric contractions caused by the different mediators are recorded by means of a Gould Statham UC2 detector (Gould Inc. Oxnard, Calif., USA) or UF1 Palmer Bioscience detector connected to a potentiometric recorder (Linseiss, Selb, Federal Republic of Germany). At the start of the experiment, the piece of trachea was placed under a tension of 1 g and set aside for one hour.
(§3) The following mediator concentrations are used (concentrations generally causing maximum contraction): histamine dihydrochloride, 10 μg/ml; acetylcholine chloride, 1 μg/ml; potassium salt of leucotrine D4, 0.05 μg/ml; potassium chloride, 1850 μg/ml. The concentrations of agents used produce contractions which become maximum within 5 to 15 minutes, depending on the mediators, and then remain at that level. One concentration of the product studied is administered for each contraction,and the product is left in contact with the trachea for 5 minutes. The inhibition, if any, obtained at the end of this time is measured (percentage variation in the amplitude of the contraction). The trachea is then washed for 15 seconds and set aside for about 10 minutes (time necessary to return to the base tone) before causing a new contraction.
(§4) The water-insoluble products are diluted in 0.178% (v/v) (final concentration in the bath) of dimethyl sulfoxide (DMSO).
(§5) The 50% inhibitory concentrations (IC 50) are calculated using an SAS program (Statistical Analysis System) based on Bliss and Cattel (Bliss C.I. and Cattel McK. Biological Assay Ann. Rev. Physiol. 5, 479, 1943).

For assay [2], the system named is trachea contractions caused by histamine. Briefly: Antagonism of the effect of histamine (contraction of isolated guinea pig trachea). Conditions: Cavia porcellus, 5 min; histamine dihydrochloride 10 μg/ml; 5 minutes contact; 37° C. The protocol: as §1, §2, §3, §4, §5
The test system of assay [3] is trachea contractions caused by acetylcholine. Briefly: Antagonism of the effect of acetylcholine (contraction of isolated guinea pig trachea). Conditions: Cavia porcellus, 5 min; acetylcholine chloride 1 μg/ml; 5 minutes contact; 37° C. The procedure:
as §1, §2, §3, §4, §5

For assay [4], the system named is trachea contractions caused by leucotriene D4. As to the kind of experiment: Antagonism of the effect of leucotriene D4 (contraction of isolated guinea pig trachea). Conditions: Cavia porcellus, 5 min, leucotriene D4 potassium salt 0.05 μg/ml, 5 minutes contact; for inhibition at 10 µg/mL: 10 μg/ml, percentage variation in the amplitude of the contraction. The protocol:
as §1, §2, §3, §4, §5

Structures are written as SMILES. ≈ marks a conversion by molar mass, not a printed value.

As to `C=CCn1c(=O)c(CCCO)nc2ccccc21` [Compound 8], the IC50 (in general, the point on the concentration scale where inhibition reaches its midpoint) in assay [1] is 12.3 µg/mL (≈ 50.3 µM).
Consider `CC(C)=CCn1c(=O)c(CCC(C)O)nc2ccccc21` (stereo not drawn) [Compound 20], for which the concentration for half-maximal inhibition (IC50) was 1.55 µg/mL (≈ 5.41 µM) in assay [2] and 9.7 µg/mL (≈ 33.9 µM) in assay [3].
`O=c1c(CCCO)nc2ccccc2n1Cc1ccccc1` [Compound 17]: in assay [2], the IC50 came to 0.43 µg/mL (≈ 1.46 µM).
As to `O=c1c(CCCO)nc2ccccc2n1CC1CC1` [Compound 15], the inhibition (usually the relative decrease from the control value, in per cent) at 10 µg/mL in assay [4] was -64%.
Regarding `COc1ccc(Cn2c(=O)c(CCC(C)O)nc3ccccc32)cc1` (stereo not drawn) [Compound 24], the IC50 in assay [2] worked out at 1.3 µg/mL (≈ 3.84 µM).
With `CC(C)=CCn1c(=O)c(CCCO)nc2ccccc21` [Compound 1, 1-prenyl 3-(3-hydroxypropyl) 1,2-dihydro 2-oxo quinoxaline], the IC50 was 0.9 µg/mL (≈ 3.3 µM) in assay [2], 25.5 µg/mL (≈ 93.6 µM) in assay [3] and 5.6 µg/mL (≈ 20.6 µM) in assay [1]. The inhibition at 10 µg/mL in assay [4] is -71%.
`C=CCn1c(=O)c(CCCO)nc2ccc(Cl)cc21` [Compound 5]: in assay [1], half-maximal inhibition (IC50) was put at 17 µg/mL (≈ 61 µM).
For the compound `CC=CCn1c(=O)c(CCC(C)O)nc2ccccc21` (stereo not drawn) [Compound 19], the IC50 is 1.13 µg/mL (≈ 4.15 µM) in assay [2] and 16.5 µg/mL (≈ 60.6 µM) in assay [3].
With `Cn1c(=O)c2[nH]cnc2n(C)c1=O` [theophylline, reference compound], the half-inhibitory concentration (IC50) is 11.5 µg/mL (≈ 63.8 µM) in assay [2], 65 µg/mL (≈ 361 µM) in assay [3], 13.5 µg/mL in assay [4] (37° C.) and 21 µg/mL (≈ 117 µM) in assay [1].
`CC=CCn1c(=O)c(CCCO)nc2ccccc21` [Compound 12]: the IC50 was 0.54 µg/mL (≈ 2.09 µM) in assay [2], 15.5 µg/mL (≈ 60 µM) in assay [3] and 6.2 µg/mL (≈ 24 µM) in assay [1]. Further, the inhibition at 10 µg/mL in assay [4] is -71%.
With `CCCn1c(=O)c(CCCO)nc2ccccc21` [Compound 11], the IC50 in assay [2] stood at 3.45 µg/mL (≈ 14 µM).
Consider `CCCn1c(=O)c(CCCOC(=O)NC)nc2ccccc21` [Compound 3, 1-propyl 3-(3-methylcarbamoyloxypropyl) 1,2-dihydro 2-oxo quinoxaline], for which the IC50 in assay [2] amounted to 3.3 µg/mL (≈ 10.9 µM); in assay [3], 7.1 µg/mL (≈ 23.4 µM).
